Measured values taken from ChEMBL document CHEMBL3272349, “Quantitative structure-activity relationships of antimalarial and dihydrofolate reductase inhibition by quinazolines and 5-substituted benzyl-2,4-diaminopyrimidines” (J Med Chem, 1977).

system: Proteus vulgaris; test: Inhibition of Proteus vulgaris dihydrofolate reductase

Activity [×10⁻⁸ M] | SMILES
10000 | CCCCc1ccc(N2C(N)=NC(N)=NC2(C)C)cc1
0.5 | COc1cc(Cc2cnc(N)nc2N)cc(OC)c1OC

system: Plasmodium berghei; test: Antimalarial activity against Plasmodium berghei infected in po dosed mouse assessed as suppression of parasitemia; format: functional

SMILES | log(1/SD90)
Nc1nc(N)c2cc(CNc3ccc(Cl)cc3)ccc2n1 | 5.2
Nc1nc(N)c2cc(N(C=O)Cc3ccc(Cl)c(Cl)c3)ccc2n1 | 5.24
Cc1c(CNc2ccc(Cl)c(Cl)c2)ccc2nc(N)nc(N)c12 | 6.02
Nc1nc(N)c2c(n1)CCN(Cc1ccc(Cl)cc1Cl)C2 | 4.4
Nc1nc(N)c2cc(CN(N=O)c3ccc(Cl)c(Cl)c3)ccc2n1 | 6.16
Cc1c(N(Cc2ccc(Cl)c(Cl)c2)N=O)ccc2nc(N)nc(N)c12 | 5.15
Nc1nc(N)c2c(n1)CCN(Cc1ccccc1Cl)C2 | 3.73
Cc1c(CN(N=O)c2ccc(Cl)c(Cl)c2)ccc2nc(N)nc(N)c12 | 5.52
Nc1nc(N)c2c(n1)CCN(Cc1c(Cl)cccc1Cl)C2 | 4.36
Cc1c(N(C=O)Cc2ccc(Cl)c(Cl)c2)ccc2nc(N)nc(N)c12 | 5.69
Cc1c(CNc2ccc(Cl)cc2)ccc2nc(N)nc(N)c12 | 6.55
Nc1nc(N)c2cc(-n3cccc3)ccc2n1 | 4.29
Nc1nc(N)c2c(n1)CCN(Cc1ccc(Cl)c(Cl)c1)C2 | 4.92
Nc1nc(N)c2c(n1)CCN(Cc1ccccc1)C2 | 3.65
Nc1nc(N)c2c(n1)CCN(Cc1ccncc1)C2 | 3.31
Nc1nc(N)c2cc(CNc3ccc(Cl)c(Cl)c3)ccc2n1 | 5.56
Nc1nc(N)c2c(n1)CCN(Cc1cccnc1)C2 | 3.88
Nc1nc(N)c2c(n1)CCN(Cc1ccc(Cl)cc1)C2 | 4.14

system: Plasmodium berghei; test: Antimalarial activity against Plasmodium berghei infected mouse assessed as suppression of parasitemia administered through diet for 6 days; format: functional

SMILES | log(1/SD90)
Nc1nc(N)c2cc(NCc3cccs3)ccc2n1 | 3.82
CCCN(Cc1ccc(Cl)cc1)c1ccc2nc(N)nc(N)c2c1 | 6.3
Nc1nc(N)c2c(Cl)c(NCc3ccc(Cl)c(Cl)c3)ccc2n1 | 5.72

system: Plasmodium berghei; test: Antimalarial activity against Plasmodium berghei infected in po dosed mouse assessed as suppression of parasitemia administered for 6 days; format: functional

SMILES | log(1/SD90)
Nc1nc(N)c2cc(Oc3cc(Cl)c(Cl)cc3Cl)ccc2n1 | 4.57
Nc1nc(N)c2cc(Oc3ccccc3)ccc2n1 | 4.43
Nc1nc(N)c2cc(OCc3ccccc3)ccc2n1 | 3.18
Nc1nc(N)c2cc(NCc3ccc(Cl)c(Cl)c3)ccc2n1 | 4.59
Nc1nc(N)c2cc(Oc3ccc4cc(Br)ccc4c3)ccc2n1 | 4.09
Nc1nc(N)c2cc(Oc3ccc4cc(Br)ccc4c3Br)ccc2n1 | 4.05
Nc1nc(N)c2cc(Oc3ccc(Cl)c4ccccc34)ccc2n1 | 3.57
Nc1nc(N)c2cc(OCc3ccc(Cl)cc3)ccc2n1 | 4.06
Nc1nc(N)c2cc(Oc3ccc(Cl)c(Cl)c3)ccc2n1 | 4.52
Nc1nc(N)c2cc(Oc3cc(C(F)(F)F)cc(C(F)(F)F)c3)ccc2n1 | 4.44
Nc1nc(N)c2cc(Oc3cc(Cl)cc(Cl)c3)ccc2n1 | 4.11

target: T1, Dihydrofolate reductase (Escherichia coli) (UniProt P0ABQ4)
T1 sequence (whole entry): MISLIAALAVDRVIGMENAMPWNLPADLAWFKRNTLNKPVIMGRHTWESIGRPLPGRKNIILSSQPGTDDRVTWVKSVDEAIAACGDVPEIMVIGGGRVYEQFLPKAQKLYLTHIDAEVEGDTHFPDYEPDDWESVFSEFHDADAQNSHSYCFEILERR
Description: Inhibition of Escherichia coli dihydrofolate reductase

log(1/I50) | SMILES
7.4 | COc1cc(Cc2cnc(N)nc2N)cc(Cl)c1OC
7 | COc1ccc(Cc2cnc(N)nc2N)cc1OC
5.96 | COc1ccc(Cc2cnc(N)nc2N)cc1
5.68 | Nc1ncc(Cc2ccc(Cl)cc2)c(N)n1
5.74 | Nc1ncc(Cc2ccc(O)cc2)c(N)n1
5.64 | Cc1ccc(Cc2cnc(N)nc2N)cc1
6.31 | COc1cccc(Cc2cnc(N)nc2N)c1

system: Plasmodium berghei; test: Antimalarial activity against Plasmodium berghei infected in po dosed mouse assessed as suppression of parasitemia administered for 4 days; format: functional

SMILES | log(1/SD90)
Nc1nc(N)c2cc(N3CCCC3c3ccccc3)ccc2n1 (configuration not stated) | 5.94
Cc1ccc(C)n1-c1cc(-n2c(C)ccc2C)c2nc(N)nc(N)c2c1 | 4.34
Nc1nc(N)c2cc(N3CCC(c4ccccc4)CC3)ccc2n1 | 4.3
Nc1nc(N)c2cc(N(Cc3ccc(Cl)c(Cl)c3)N=O)ccc2n1 | 6.13
Nc1nc(N)c2cc(N3CCc4ccccc4C3)ccc2n1 | 4.8

target: T2, Dihydrofolate reductase (Rattus norvegicus) (UniProt Q920D2)
T2 sequence (whole entry): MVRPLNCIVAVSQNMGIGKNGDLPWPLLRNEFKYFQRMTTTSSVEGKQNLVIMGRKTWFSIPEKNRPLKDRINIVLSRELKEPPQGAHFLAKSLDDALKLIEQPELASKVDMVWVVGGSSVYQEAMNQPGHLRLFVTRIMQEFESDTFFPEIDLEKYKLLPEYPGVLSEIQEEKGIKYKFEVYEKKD
Description: Inhibition of rat liver dihydrofolate reductase

log(1/I50) | SMILES
4.8 | Nc1ncc(Cc2ccccc2)c(N)n1
